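Test compounds were applied to cells in 96-well plates for 48 hours at 5 doses. TGI marks complete inhibition of growth.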
Key:
Assay in all cases: inhibition of tumour cell growth, NCI panel, 48 h
MDA-MB-435 = system: MDA-MB-435
RPMI-8226 leukemia = system: RPMI-8226 leukemia
DU-145 prostate = system: DU-145 prostate
NCI-H23 lung = system: NCI-H23 lung
UACC-257 melanoma = system: UACC-257 melanoma
PC-3 prostate = system: PC-3 prostate
HOP-92 NSCLC = system: HOP-92 NSCLC
UO-31 renal = system: UO-31 renal
OVCAR-3 ovarian = system: OVCAR-3 ovarian
M14 melanoma = system: M14 melanoma
SNB-19 CNS = system: SNB-19 CNS
MDA-N = system: MDA-N
NCI-H226 lung = system: NCI-H226 lung
SF-539 CNS = system: SF-539 CNS
KM12 colon = system: KM12 colon
SK-OV-3 ovarian = system: SK-OV-3 ovarian
HCT-116 colon = system: HCT-116 colon
COLO 205 colon = system: COLO 205 colon
SF-295 CNS = system: SF-295 CNS
SF-268 CNS = system: SF-268 CNS
CAKI-1 renal = system: CAKI-1 renal
TK-10 renal = system: TK-10 renal
U251 CNS = system: U251 CNS
SK-MEL-28 melanoma = system: SK-MEL-28 melanoma
NCI-H522 lung = system: NCI-H522 lung
A549 NSCLC = system: A549 NSCLC
OVCAR-8 ovarian = system: OVCAR-8 ovarian
SNB-75 CNS = system: SNB-75 CNS
T-47D breast = system: T-47D breast
786-0 renal = system: 786-0 renal
UACC-62 melanoma = system: UACC-62 melanoma
OVCAR-5 ovarian = system: OVCAR-5 ovarian
RXF 393 renal = system: RXF 393 renal
NCI/ADR-RES ovarian = system: NCI/ADR-RES ovarian
MALME-3M melanoma = system: MALME-3M melanoma
HCC-2998 colon = system: HCC-2998 colon
HT29 colon = system: HT29 colon
HCT-15 colon = system: HCT-15 colon
OVCAR-4 ovarian = system: OVCAR-4 ovarian
NCI-H460 lung = system: NCI-H460 lung
SW-620 colon = system: SW-620 colon
MOLT-4 leukemia = system: MOLT-4 leukemia
CCRF-CEM leukemia = system: CCRF-CEM leukemia
EKVX NSCLC = system: EKVX NSCLC
HS 578T breast = system: HS 578T breast
IGROV1 ovarian = system: IGROV1 ovarian
SK-MEL-5 melanoma = system: SK-MEL-5 melanoma
BT-549 breast = system: BT-549 breast
HOP-62 NSCLC = system: HOP-62 NSCLC
SN12C renal = system: SN12C renal
MCF7 breast = system: MCF7 breast
HL-60(TB) leukemia = system: HL-60(TB) leukemia
SK-MEL-2 melanoma = system: SK-MEL-2 melanoma
K-562 leukemia = system: K-562 leukemia
LOX IMVI melanoma = system: LOX IMVI melanoma
MDA-MB-231 breast = system: MDA-MB-231 breast
ACHN renal = system: ACHN renal
A498 renal = system: A498 renal

**Q.** What does the source list for `COc1ccc(/C(Nc2ccccc2)=C(\CCl)c2ccccc2)cc1OC`?
**A.** TGI (MDA-MB-435): > 100 µM; TGI (RPMI-8226 leukemia): > 100 µM; TGI (DU-145 prostate): > 100 µM; TGI (NCI-H23 lung): > 100 µM; TGI (UACC-257 melanoma): > 100 µM; TGI (PC-3 prostate): > 100 µM; TGI (HOP-92 NSCLC): > 100 µM; TGI (UO-31 renal): > 100 µM; TGI (OVCAR-3 ovarian): > 100 µM; TGI (M14 melanoma): > 100 µM; TGI (SNB-19 CNS): > 100 µM; TGI (MDA-N): > 100 µM; TGI (NCI-H226 lung): > 100 µM; TGI (SF-539 CNS): > 100 µM; TGI (KM12 colon): > 100 µM; TGI (SK-OV-3 ovarian): > 100 µM; TGI (HCT-116 colon): 48.9 µM; TGI (COLO 205 colon): > 100 µM; TGI (SF-295 CNS): > 100 µM; TGI (SF-268 CNS): > 100 µM; TGI (CAKI-1 renal): > 100 µM; TGI (TK-10 renal): > 100 µM; TGI (U251 CNS): 64.7 µM; TGI (SK-MEL-28 melanoma): > 100 µM; TGI (NCI-H522 lung): > 100 µM; TGI (A549 NSCLC): > 100 µM; TGI (OVCAR-8 ovarian): > 100 µM; TGI (SNB-75 CNS): > 100 µM; TGI (T-47D breast): > 100 µM; TGI (786-0 renal): > 100 µM; TGI (UACC-62 melanoma): > 100 µM; TGI (OVCAR-5 ovarian): > 100 µM; TGI (RXF 393 renal): > 100 µM; TGI (NCI/ADR-RES ovarian): > 100 µM; TGI (MALME-3M melanoma): > 100 µM; TGI (HCC-2998 colon): > 100 µM; TGI (HT29 colon): > 100 µM; TGI (HCT-15 colon): > 100 µM; TGI (OVCAR-4 ovarian): > 100 µM; TGI (NCI-H460 lung): > 100 µM; TGI (SW-620 colon): > 100 µM; TGI (MOLT-4 leukemia): > 100 µM; TGI (CCRF-CEM leukemia): 65.5 µM; TGI (EKVX NSCLC): > 100 µM; TGI (HS 578T breast): > 100 µM; TGI (IGROV1 ovarian): > 100 µM; TGI (SK-MEL-5 melanoma): 72.2 µM; TGI (BT-549 breast): > 100 µM; TGI (HOP-62 NSCLC): > 100 µM; TGI (SN12C renal): > 100 µM; TGI (MCF7 breast): > 100 µM; TGI (HL-60(TB) leukemia): 50 µM; TGI (SK-MEL-2 melanoma): 79.9 µM; TGI (K-562 leukemia): 64.9 µM; TGI (LOX IMVI melanoma): > 100 µM; TGI (MDA-MB-231 breast): > 100 µM; TGI (ACHN renal): > 100 µM; TGI (A498 renal): > 100 µM

**Q.** What does the source list for `Clc1ccc(C=Nc2ccc(Oc3ccc(Cl)cc3)c(Cl)c2)cc1`?
**A.** TGI (MDA-MB-435): 82.5 µM; TGI (RPMI-8226 leukemia): > 100 µM; TGI (DU-145 prostate): > 100 µM; TGI (NCI-H23 lung): 54.2 µM; TGI (UACC-257 melanoma): 77.5 µM; TGI (PC-3 prostate): 69.8 µM; TGI (HOP-92 NSCLC): 41 µM; TGI (UO-31 renal): 24.8 µM; TGI (OVCAR-3 ovarian): 40.4 µM; TGI (M14 melanoma): 46.9 µM; TGI (SNB-19 CNS): 56.2 µM; TGI (MDA-N): 38.8 µM; TGI (NCI-H226 lung): > 100 µM; TGI (SF-539 CNS): 35.4 µM; TGI (KM12 colon): 52.5 µM; TGI (SK-OV-3 ovarian): 50.2 µM; TGI (HCT-116 colon): 36.2 µM; TGI (COLO 205 colon): 36.5 µM; TGI (SF-295 CNS): 37.7 µM; TGI (SF-268 CNS): 41.1 µM; TGI (CAKI-1 renal): 86.2 µM; TGI (TK-10 renal): > 100 µM; TGI (U251 CNS): 60.5 µM; TGI (SK-MEL-28 melanoma): 61.5 µM; TGI (NCI-H522 lung): 32.3 µM; TGI (A549 NSCLC): 59.1 µM; TGI (OVCAR-8 ovarian): > 100 µM; TGI (SNB-75 CNS): 52.6 µM; TGI (T-47D breast): 89.8 µM; TGI (786-0 renal): 36.1 µM; TGI (UACC-62 melanoma): 41.5 µM; TGI (OVCAR-5 ovarian): > 100 µM; TGI (NCI/ADR-RES ovarian): 58.5 µM; TGI (MALME-3M melanoma): 49.2 µM; TGI (HCC-2998 colon): 45.6 µM; TGI (HT29 colon): 55 µM; TGI (HCT-15 colon): 44.2 µM; TGI (OVCAR-4 ovarian): 76.1 µM; TGI (NCI-H460 lung): 44.5 µM; TGI (SW-620 colon): > 100 µM; TGI (MOLT-4 leukemia): > 100 µM; TGI (CCRF-CEM leukemia): 59.7 µM; TGI (EKVX NSCLC): 70.2 µM; TGI (HS 578T breast): 51.4 µM; TGI (IGROV1 ovarian): > 100 µM; TGI (SK-MEL-5 melanoma): 49.5 µM; TGI (BT-549 breast): 53.3 µM; TGI (HOP-62 NSCLC): 37.5 µM; TGI (SN12C renal): 36.6 µM; TGI (MCF7 breast): 88 µM; TGI (HL-60(TB) leukemia): 63.8 µM; TGI (SK-MEL-2 melanoma): 54.2 µM; TGI (LOX IMVI melanoma): 39.1 µM; TGI (MDA-MB-231 breast): 47.9 µM; TGI (ACHN renal): > 100 µM

Reference: PubChem BioAssay (NCI)
